Drawing on PubChem BioAssay (NCI), this text covers GI50 and TGI for nine molecules.

SMILES strings stand for the structures.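 Following 48 hours of exposure in 96-well plates, responses at five concentrations were used to interpolate endpoints linearly. The concentration for 50% growth inhibition is given as GI50. TGI: total growth inhibition.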

Some test systems named below: ACHN renal; IGROV1 ovarian; M14 melanoma; UO-31 renal; BT-549 breast; NCI-H226 lung; SK-OV-3 ovarian; OVCAR-3 ovarian; RPMI-8226 leukemia; U251 CNS.
Holding throughout (test): growth of human tumour cells (NCI), 48 h

Turning to `C[C@@]1(C(=O)O)CCC[C@]2(C)C1CC[C@@]13CC(=O)[C@@](CO)(CC[C@]12O)C3` (stereo partly drawn), the GI50 in the assay on ACHN renal, in the assay with IGROV1 ovarian, with M14 melanoma, in the assay on UO-31 renal, with BT-549 breast and in the assay on NCI-H226 lung was over 100 µM throughout. In addition, the GI50 in the assay on SK-OV-3 ovarian was 21.3 µM; in the assay with OVCAR-3 ovarian, over 100 µM; in the assay on RPMI-8226 leukemia, over 100 µM; in the assay on U251 CNS, over 100 µM. The TGI in the assay on ACHN renal, in the assay with IGROV1 ovarian, in the assay on M14 melanoma, with UO-31 renal, in the assay with BT-549 breast and in the assay with NCI-H226 lung was over 100 µM in each case. The TGI in the assay on SK-OV-3 ovarian, in the assay with OVCAR-3 ovarian, with RPMI-8226 leukemia and in the assay with U251 CNS was over 100 µM in each case.
On to `C/C(=N\NC(=S)N1CC2CCC(CC2)C1)c1nccs1`, for which the TGI in the assay on ACHN renal was determined as 8.99 µM; in the assay with IGROV1 ovarian, 15 µM; with M14 melanoma it was 1.6 µM; in the assay on UO-31 renal it was 1.52 µM; with BT-549 breast, 20 µM; in the assay on NCI-H226 lung, 4.7 µM. The TGI in the assay on SK-OV-3 ovarian was 11.3 µM; in the assay with OVCAR-3 ovarian, 19.8 µM; in the assay with RPMI-8226 leukemia it was 20.8 µM; in the assay with U251 CNS, 6.43 µM.
For `COc1cc(C(O)CCBr)c(OC)cc1C` (stereo not drawn), the TGI with ACHN renal was over 100 µM; with IGROV1 ovarian, over 100 µM; with M14 melanoma, 33.9 µM; in the assay with UO-31 renal, over 100 µM; in the assay with BT-549 breast, over 84.4 µM; in the assay on NCI-H226 lung, over 100 µM. Besides, the TGI was over 73.6 µM in the assay on SK-OV-3 ovarian, 44.1 µM in the assay with OVCAR-3 ovarian, over 100 µM in the assay with RPMI-8226 leukemia and over 100 µM with U251 CNS.
Regarding `C/C=C(\C)C(=O)NC1=CC[C@@]2(C)C(=CCC3C2CC[C@@]2(C)C3CC[C@@H]2C(C)N(C)C)C1=O` (stereo partly drawn), the GI50 with ACHN renal was 8.03 µM; in the assay on IGROV1 ovarian, 5.17 µM; in the assay on M14 melanoma, 1.81 µM; with UO-31 renal, 1.44 µM; with BT-549 breast, 3.39 µM; with NCI-H226 lung it was 4.65 µM. Besides, the GI50 in the assay with SK-OV-3 ovarian is 11.6 µM; with OVCAR-3 ovarian it was 2.5 µM; with RPMI-8226 leukemia, 1.91 µM; in the assay on U251 CNS it was 4.34 µM. The TGI is over 47 µM with ACHN renal; 21 µM in the assay on IGROV1 ovarian; 3.44 µM with M14 melanoma; 3.02 µM in the assay with UO-31 renal; 15.8 µM in the assay with BT-549 breast; 36.3 µM in the assay on NCI-H226 lung. Besides, the TGI in the assay on SK-OV-3 ovarian worked out at 29.8 µM; in the assay with OVCAR-3 ovarian, 12.8 µM; with RPMI-8226 leukemia, 9.38 µM; with U251 CNS it was 23.3 µM.
For the molecule `CCN(Cc1ccc(Cl)cc1)c1ccc(CO)c(Cl)c1`, the GI50 in the assay with ACHN renal is 4.64 µM; in the assay with IGROV1 ovarian, 0.0867 µM; in the assay on M14 melanoma, 4.43 µM; with UO-31 renal, 2.18 µM; in the assay with BT-549 breast, 5.02 µM; with NCI-H226 lung, 0.063 µM. For the same molecule, the GI50 in the assay on SK-OV-3 ovarian is 2.6 µM; in the assay with OVCAR-3 ovarian, 1.15 µM; in the assay on RPMI-8226 leukemia, 3.27 µM; with U251 CNS, 0.863 µM. Also, the TGI turned out to be 19.6 µM in the assay on ACHN renal; 0.641 µM in the assay with IGROV1 ovarian; 20.2 µM in the assay with M14 melanoma; 13.5 µM in the assay on UO-31 renal; 19.4 µM with BT-549 breast; 0.198 µM in the assay with NCI-H226 lung. Also, the TGI with SK-OV-3 ovarian amounted to 12.9 µM; in the assay on OVCAR-3 ovarian, 5.75 µM; in the assay with RPMI-8226 leukemia it was 32.9 µM; with U251 CNS, 13 µM.
Consider `O.O.[NH-]C1(C(=O)O)CCCC1.[NH-]C1(C(=O)O)CCCC1.[Ni+2]`, for which the figures for the GI50 with ACHN renal, in the assay with M14 melanoma and with BT-549 breast were over 100 µM, 96.7 µM and over 100 µM, respectively. Moreover, the TGI in the assay on ACHN renal, in the assay with IGROV1 ovarian, in the assay on M14 melanoma, in the assay on UO-31 renal, with BT-549 breast and in the assay on NCI-H226 lung was over 100 µM throughout. In addition, the TGI in the assay with SK-OV-3 ovarian, in the assay on OVCAR-3 ovarian, in the assay with RPMI-8226 leukemia and with U251 CNS was over 100 µM throughout.
As to `CN(Cc1ccccc1)C(=NC#N)N(Cc1ccccc1)Cc1ccccc1`, the TGI in the assay with ACHN renal was 78.3 µM; in the assay on IGROV1 ovarian it was over 80.6 µM; in the assay on M14 melanoma it was 47.7 µM; in the assay on UO-31 renal it was over 84.2 µM; in the assay on BT-549 breast it was 49.6 µM; in the assay with NCI-H226 lung it was 67.5 µM. The TGI is over 90.3 µM in the assay with SK-OV-3 ovarian, 44.7 µM with OVCAR-3 ovarian, 55.4 µM in the assay with RPMI-8226 leukemia and 96.9 µM with U251 CNS.
`COc1cc(/C=C\c2cc(OC)c(OC)c(OC)c2)cc(NC(=O)/C=C/c2cc(OC)c(OC)c(OC)c2)c1OC`: the GI50 in the assay with ACHN renal is 8.38 µM; with IGROV1 ovarian, 6.61 µM; with M14 melanoma, 3.78 µM; with UO-31 renal, 1.09 µM; in the assay on BT-549 breast, 2.92 µM; with NCI-H226 lung, 50 µM. For the same molecule, the GI50 with SK-OV-3 ovarian is 6.62 µM; with OVCAR-3 ovarian, 10.8 µM; in the assay on RPMI-8226 leukemia, 1.36 µM; with U251 CNS it was 6.71 µM. Further, the TGI in the assay on ACHN renal, with IGROV1 ovarian, in the assay on M14 melanoma, in the assay with UO-31 renal, in the assay on BT-549 breast and with NCI-H226 lung was over 100 µM throughout. In addition, the TGI in the assay on SK-OV-3 ovarian, in the assay on OVCAR-3 ovarian, with RPMI-8226 leukemia and with U251 CNS was over 100 µM in each case.
For `O=c1[nH]c(=O)c2cn[nH]c2[nH]1`, the GI50 in the assay on ACHN renal, in the assay with IGROV1 ovarian, with M14 melanoma, in the assay on UO-31 renal, with BT-549 breast and with NCI-H226 lung was over 100 µM throughout. Besides, the GI50 in the assay on SK-OV-3 ovarian, with OVCAR-3 ovarian, with RPMI-8226 leukemia and with U251 CNS was over 100 µM throughout. In addition, the TGI in the assay with ACHN renal, in the assay on IGROV1 ovarian, in the assay with M14 melanoma, in the assay on UO-31 renal, in the assay on BT-549 breast and in the assay on NCI-H226 lung was over 100 µM throughout. Also, the TGI in the assay with SK-OV-3 ovarian, in the assay on OVCAR-3 ovarian, in the assay with RPMI-8226 leukemia and in the assay with U251 CNS was over 100 µM throughout.
